Measurements taken from ChEMBL document CHEMBL1201862, “PubChem BioAssay data set” (2004).
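How tested: cells in 96-well plates exposed to compound for 48 hours at five concentrations. GI50 marks 50% less growth.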 The source made the active and inactive calls. Cut-off read from the data, not from the text of the source: active = GI50 up to about 1.1 µM and inactive = higher.

Columns and labels:
Assay in all cases: DTP human tumour cell line panel, 48 h
EKVX = tested on: EKVX
HCT-116 = tested on: HCT-116
HOP-92 = tested on: HOP-92
HT-29 = tested on: HT-29
KM12 = tested on: KM12
LOX IMVI = tested on: LOX IMVI
M14 = tested on: M14
NCI-H522 = tested on: NCI-H522
OVCAR-5 = tested on: OVCAR-5
OVCAR-8 = tested on: OVCAR-8
RPMI-8226 = tested on: RPMI-8226
SF-268 = tested on: SF-268
SF-295 = tested on: SF-295
SN12C = tested on: SN12C
SNB-19 = tested on: SNB-19
SW-620 = tested on: SW-620
U-251 = tested on: U-251
UACC-257 = tested on: UACC-257
UACC-62 = tested on: UACC-62

Measured: GI50

COC(=O)c1cc(C#N)[nH]c1-c1cc(Br)cs1
inactive: EKVX 16.1 µM | HCT-116 12.8 µM | HOP-92 3.61 µM | HT-29 14.2 µM | KM12 20.7 µM | LOX IMVI 11.3 µM | M14 14.3 µM | NCI-H522 2.1 µM | OVCAR-5 16.3 µM | OVCAR-8 14.7 µM | RPMI-8226 7.55 µM | SF-268 17.7 µM | SF-295 10 µM | SN12C 14.9 µM | SNB-19 15 µM | SW-620 17.7 µM | U-251 13.3 µM | UACC-257 11.4 µM | UACC-62 15.8 µM

CC1(C)C(OC(=O)c2ccccc2)C[C@]23CCC[C@](C)(C[C@@H](O)C12)C3 (stereo not given in full)
inactive: EKVX 19.9 µM | HCT-116 13.9 µM | HOP-92 16 µM | HT-29 16.1 µM | KM12 16.7 µM | LOX IMVI 17 µM | M14 19.9 µM | NCI-H522 15.5 µM | OVCAR-5 15.3 µM | OVCAR-8 16.7 µM | RPMI-8226 23.9 µM | SF-268 24.1 µM | SF-295 13.9 µM | SN12C 18.4 µM | SNB-19 23.6 µM | SW-620 13.9 µM | U-251 > 10 µM | UACC-257 20.4 µM | UACC-62 15.2 µM

Cc1cc(=O)n2nc(CN3CCCCC3)sc2n1
inactive: EKVX > 100 µM | HCT-116 > 100 µM | HOP-92 > 100 µM | HT-29 > 100 µM | KM12 > 100 µM | LOX IMVI > 100 µM | M14 > 100 µM | NCI-H522 > 100 µM | OVCAR-5 > 100 µM | OVCAR-8 > 100 µM | RPMI-8226 > 100 µM | SF-268 > 100 µM | SF-295 > 100 µM | SN12C > 100 µM | SNB-19 > 100 µM | SW-620 > 100 µM | U-251 > 100 µM | UACC-257 > 100 µM | UACC-62 > 100 µM

O=C(NCCCCCCNC(=O)c1cccc2ccccc12)Nc1cccc2ccccc12
inactive: EKVX > 100 µM | HCT-116 > 100 µM | HOP-92 > 100 µM | HT-29 > 100 µM | KM12 > 100 µM | LOX IMVI > 100 µM | M14 > 100 µM | NCI-H522 > 100 µM | OVCAR-5 > 100 µM | OVCAR-8 > 100 µM | RPMI-8226 > 100 µM | SF-268 > 100 µM | SF-295 > 100 µM | SN12C > 100 µM | SNB-19 > 100 µM | SW-620 > 100 µM | U-251 > 100 µM | UACC-257 > 100 µM | UACC-62 > 100 µM

COc1ccc2c(c1)CCc1c-2n(CCN(C)C)c2ccc(OC)cc12
inactive: EKVX 31.2 µM | HCT-116 5.33 µM | HOP-92 94.2 µM | HT-29 3.44 µM | KM12 7.53 µM | LOX IMVI 7.89 µM | M14 3.6 µM | NCI-H522 10 µM | OVCAR-5 16.8 µM | OVCAR-8 20.7 µM | RPMI-8226 4.92 µM | SF-268 22.6 µM | SF-295 18.3 µM | SN12C 12.5 µM | SNB-19 11.6 µM | SW-620 5.37 µM | U-251 12.1 µM | UACC-257 33 µM | UACC-62 9.42 µM

COC(=O)c1c(C)nc(C)c(NO)c1-c1ccccc1C(F)(F)F
inactive: EKVX 83 µM | HCT-116 16.3 µM | HOP-92 14.2 µM | HT-29 18.4 µM | KM12 34.7 µM | LOX IMVI 38.3 µM | M14 19 µM | NCI-H522 17.2 µM | OVCAR-5 31.8 µM | OVCAR-8 18.5 µM | RPMI-8226 15.1 µM | SF-268 41.4 µM | SF-295 > 100 µM | SN12C 27 µM | SNB-19 > 100 µM | SW-620 16 µM | U-251 > 100 µM | UACC-257 22 µM | UACC-62 64.9 µM

Cc1ccc(/N=N/N(C)C(=O)C(C)N)cc1 (stereo not given)
inactive: EKVX > 100 µM | HCT-116 > 100 µM | HOP-92 > 100 µM | HT-29 > 100 µM | KM12 > 100 µM | LOX IMVI > 100 µM | M14 > 100 µM | NCI-H522 60.1 µM | OVCAR-5 > 100 µM | OVCAR-8 > 100 µM | RPMI-8226 16.1 µM | SF-268 > 100 µM | SF-295 > 100 µM | SN12C > 100 µM | SNB-19 > 100 µM | SW-620 8.53 µM | U-251 > 100 µM | UACC-257 > 100 µM | UACC-62 > 100 µM

COC(=O)NC1=NNC(=O)c2ccccc2N1
inactive: EKVX > 100 µM | HCT-116 > 100 µM | HOP-92 > 100 µM | HT-29 > 100 µM | KM12 > 100 µM | LOX IMVI > 100 µM | M14 > 100 µM | NCI-H522 > 100 µM | OVCAR-5 > 100 µM | OVCAR-8 > 100 µM | RPMI-8226 > 100 µM | SF-268 > 100 µM | SF-295 > 100 µM | SN12C > 100 µM | SNB-19 > 100 µM | SW-620 > 100 µM | U-251 > 100 µM | UACC-257 > 100 µM | UACC-62 > 100 µM

COc1ccc(NC(=O)C(=O)C(CC2C(=O)NC(=S)NC2=O)C(=O)c2ccc3ccccc3c2)c([N+](=O)[O-])c1 (stereo not given)
inactive: EKVX > 100 µM | HCT-116 > 100 µM | HOP-92 > 100 µM | HT-29 > 100 µM | KM12 > 100 µM | LOX IMVI > 100 µM | M14 > 100 µM | NCI-H522 > 100 µM | OVCAR-5 > 100 µM | OVCAR-8 > 100 µM | RPMI-8226 76.9 µM | SF-268 > 100 µM | SF-295 > 100 µM | SN12C > 100 µM | SNB-19 > 100 µM | SW-620 > 100 µM | U-251 > 100 µM | UACC-257 > 100 µM | UACC-62 > 100 µM

CCC1c2[nH]c3ccccc3c2C[C@H]2C(=O)NC(CCCCNC(=O)OC(C)(C)C)C(=O)N12 (stereo not given in full)
inactive: EKVX 42 µM | HCT-116 26.1 µM | HOP-92 34 µM | HT-29 30.5 µM | KM12 18.5 µM | LOX IMVI 24.8 µM | M14 17.5 µM | NCI-H522 20.7 µM | OVCAR-5 68.4 µM | OVCAR-8 33 µM | RPMI-8226 24.5 µM | SF-268 45.1 µM | SF-295 22.9 µM | SN12C 27.5 µM | SNB-19 44.2 µM | SW-620 47.2 µM | U-251 38.5 µM | UACC-257 21.2 µM | UACC-62 20.5 µM
